Assays:
[1] = TEM / optical observation of assemblies and aggregates; format: physicochemical
Hydrogelation test = format: physicochemical; conditions: 4 mM solution of 1, pH changed to pH 6.4, Figure S2
[2] = 1 (800 µM), peaks disappear at 4.0 wt% Tw-80

Nap-FFpYGGaa [1P]
appearance after addition of one equivalent of 2, without ALP ([1]; 1P 500 µM, 1 eq. 2, pH 7.4, TEM aggregates largely unstructured): colloidal suspension
morphology after simultaneous addition of 2 and ALP ([1]; 1P 500 µM, 2 (1 eq.), ALP 1.25 U/mL, pH 7.4, TEM, precipitates over time): large aggregates
morphology after ALP dephosphorylation in the absence of 2 ([1]; 1P 500 µM, ALP 1.25 U/mL, pH 7.4, TEM): long nanofibers

Nap-FFYGGaa [compound 1]
appearance after addition of five equivalents of 2 ([1]; 500 µM suspension of 1, 24–48h after the addition, Figure S5): opaque colloidal precipitate
morphology on direct addition in water ([1]; 1 500 µM, pH 7.4, TEM): suspension consisting of nanoribbons
hydrogel formation (Hydrogelation test): self-supporting gel
binding with 2 by ITC, in words (ITC in PBS, no surfactant, 1 and 3 as assemblies): too weak to be measured by ITC
ITC heating profile on titration with 2, in words (ITC, 1.0 wt% of Tw-80, Figure 2C): release of heat
size of the assemblies (DLS peaks) [2]: > 100 nm

CN[C@H](CC(C)C)C(=O)N[C@H]1C(=O)N[C@@H](CC(N)=O)C(=O)N[C@H]2C(=O)N[C@H]3C(=O)N[C@H](C(=O)N[C@H](C(=O)O)c4cc(O)cc(O)c4-c4cc3ccc4O)[C@H](O)c3ccc(c(Cl)c3)Oc3cc2cc(c3O)Oc2ccc(cc2Cl)[C@H]1O [vancomycin aglycon, reference compound]
aggregate formation in EISA of 1P when it replaces 2 ([1]; TEM, Figure S20, short fibers were observed): no aggregates were observed

Reference: publication PMC5484146 (Journal of the American Chemical Society, 2016)
